# Experimental data from ChEMBL document CHEMBL3763141, “Anti-Candida Cassane-Type Diterpenoids from the Root Bark of Swartzia simplex” (2015).
# Active and inactive are the calls of the source. The rule behind the calls is not given here.
# What was measured:
# [1] = test system: Candida albicans; assay: Antifungal activity against hypersusceptible Candida albicans DSY2621 mutant after overnight incubation by MTT based bioautography method; format: functional
# [2] = test system: Candida albicans; assay: Antifungal activity against Candida albicans CAF2-1 after overnight incubation by MTT based bioautography method; format: functional
# [3] = test system: Candida albicans; assay: Antifungal activity against Candida albicans CAF2-1 after 24 hrs by spectrophotometry based broth dilution assay; format: functional; conditions: CAF2-1, 24 h
# [4] = test system: Candida albicans; assay: Antibiofilm activity against Candida albicans CAF2-1 after 48 hrs by XTT assay; format: functional; conditions: CAF2-1, 48 h
# [5] = test system: Candida albicans; assay: Induction of ultrastructural changes in Candida albicans CAF2-1 assessed as breakage zones of plasma membrane at 16 ug/ml after 18 hrs by uranyl acetate/lead citrate staining based transmission electron microscopy; format: functional, organism-based
# [6] = test system: Candida albicans; assay: Induction of ultrastructural changes in Candida albicans CAF2-1 assessed as retraction of cytoplasm at 16 ug/ml after 18 hrs by uranyl acetate/lead citrate staining based transmission electron microscopy; format: functional, organism-based
# [7] = test system: Candida albicans; assay: Induction of ultrastructural changes in Candida albicans CAF2-1 assessed as disorganization and disruption of nuclear membrane at 16 ug/ml after 18 hrs by uranyl acetate/lead citrate staining based transmission electron microscopy; format: functional, organism-based
# [8] = test system: Candida albicans; assay: Induction of ultrastructural changes in Candida albicans CAF2-1 assessed as cytoplasmic content dis-organization at 16 ug/ml after 18 hrs by uranyl acetate/lead citrate staining based transmission electron microscopy; format: functional, organism-based
# [9] = test system: Candida albicans; assay: Induction of ultrastructural changes in Candida albicans CAF2-1 assessed as reduction in budding initiation at 16 ug/ml after 18 hrs by uranyl acetate/lead citrate staining based transmission electron microscopy; format: functional, organism-based
# [10] = test system: Candida albicans; assay: Induction of ultrastructural changes in Candida albicans CAF2-1 assessed as cytoplasmic content dis-organization with disappearance of mitochondria at 16 ug/ml after 18 hrs by uranyl acetate/lead citrate staining based transmission electron microscopy; format: functional, organism-based
# [11] = test system: Candida albicans; assay: Induction of ultrastructural changes in Candida albicans CAF2-1 assessed as cytoplasmic content dis-organization with disappearance of golgi apparatus at 16 ug/ml after 18 hrs by uranyl acetate/lead citrate staining based transmission electron microscopy; format: functional, organism-based
# [12] = test system: Candida albicans; assay: Induction of ultrastructural changes in Candida albicans CAF2-1 assessed as cytoplasmic content dis-organization with disappearance of ribosomes at 16 ug/ml after 18 hrs by uranyl acetate/lead citrate staining based transmission electron microscopy; format: functional, organism-based
Compound,MIC [1] [µg],MIC [2] [µg],MIC [3] [µg/mL],MIC [4] [µg/mL],further results
COc1c(O)c2c(c3c1[C@@H](CO)OC3=O)CC[C@H]1C(C)(C)CCC[C@]21C,20,>50,> 32,> 50,–
COc1c(O)c2c(c3c1[C@@H](CO)OC3=O)CC[C@H]1[C@@H]3C[C@@H]3CC[C@]21C,–,–,> 32,50,–
Clc1ccc(COC(Cn2ccnc2)c2ccc(Cl)cc2Cl)c(Cl)c1 (stereo not given) [MICONAZOLE],0.0006,0.005,0.0156,–,–
COc1c(O)c2c(c3c1CCOC3=O)CC[C@H]1C(C)(C)CCC[C@]21C,>50,>50,> 32,> 50,–
CC1(C)CCC[C@]2(C)c3c(O)c(O)c4c(c3C=C[C@@H]12)C(=O)O[C@@H]4CO,>50,>50,> 32,50,–
COc1c(O)c2c(c3c(=O)occc13)CC[C@H]1C(C)(C)C(=O)CC[C@]21C,10,>50,> 32,> 50,–
C[C@H]1C(CCO)=C(O)C(=O)[C@H]2[C@H]1CC[C@H]1C(C)(C)CCC[C@]21C,<20,–,> 32,> 50,–
COc1c(O)c2c(c3c1[C@@H](CO)OC3=O)CC[C@H]1C(C)(C)C(=O)CC[C@]21C,>50,>50,> 32,> 50,–
CC1(C)CCC[C@]2(C)c3c(O)c(O)c4c(c3CC[C@@H]12)C(=O)O[C@H]4CO,8,>50,32,25,Activity [5]: Active; Activity [6]: Active; Activity [7]: Active; Activity [8]: Active; Activity [9]: Active; Activity [10]: Active; Activity [11]: Active; Activity [12]: Active
COc1c(O)c2c(c3c1CCOC3=O)CC[C@H]1C(C)(C)C(=O)CC[C@]21C,>50,>50,> 32,> 50,–
COc1c(O)c2c(c3c1[C@H](O)COC3=O)CC[C@H]1C(C)(C)CCC[C@]21C,5,2,32,50,–
COc1c(O)c2c(c3c(=O)occc13)CC[C@H]1C(C)(C)CCC[C@]21C,–,>50,> 32,> 50,–
CC1(C)CCC[C@]2(C)c3c(O)c(O)c4c(c3CC[C@@H]12)C(=O)OCC4,8,>50,> 32,50,–
CC1(C)CCC[C@]2(C)c3c(O)c(O)c4ccoc(=O)c4c3CC[C@@H]12,–,–,> 32,50,–
COc1ccc(-c2coc3cc(O)c(OC)cc3c2=O)cc1 [CASTANIN],–,>50,> 32,> 50,–
